Measured values: patent US20170190671A1, “BIS(ARYL)CATECHOL DERIVATIVES AS HERBICIDES” (E I DU PONT DE NEMOURS AND COMPANY, priority 2014, published 2017)

Legend:
Type in all cases: in vivo
[1] = test system: barnyardgrass (Echinochloa crus-galli); test: Test C preemergence; details: Echinochloa crus-galli, pre-emergence, preemergence, scale 0 to 100, read-out: Plant response rating, Barnyardgrass; for pest or weed control at 31 g/ha: 31 g ai/ha; for pest or weed control at 62 g/ha: 62 g ai/ha; for pest or weed control at 125 g/ha: 125 g ai/ha; for pest or weed control at 250 g/ha: 250 g ai/ha
Outline: (§1)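 Visual ratings (0 none to 100 complete control) were made 13 to 15 days after treatment, relative to controls. Test chemicals, formulated in a non-phytotoxic solvent mixture with surfactant, were applied in the greenhouse preemergence to seeded loam-sand soil or postemergence to plants 2 to 18 cm tall.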

[2] = test system: lambsquarters (Chenopodium album); test: Test C preemergence; details: Chenopodium album, pre-emergence, 336 h, preemergence, scale 0 to 100, read-out: Plant response rating, Lambsquarters; for pest or weed control at 31 g/ha: 31 g ai/ha; for pest or weed control at 62 g/ha: 62 g ai/ha; for pest or weed control at 125 g/ha: 125 g ai/ha
Outline: as §1

[3] = test system: Italian ryegrass (Lolium multiflorum); test: Test A postemergence; details: Lolium multiflorum, post-emergence, 240 h, 1000 g ai/ha, 0 to 100 scale, read-out: Plant response rating, Ryegrass, Italian
Outline: (§2)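 Scoring: eye-based comparison with untreated controls, 0 for no effect through 100 for complete control, at about day 10. Treatments: directed soil spray preemergence; foliar spray postemergence on 2–10 cm plants at the one- to two-leaf stage. Medium: loam soil with sand.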

[4] = test system: giant foxtail (Setaria faberii); test: Test A postemergence; details: Setaria faberi, post-emergence, 240 h, 1000 g ai/ha, 0 to 100 scale, read-out: Plant response rating, Foxtail, Giant
Outline: as §2

[5] = test system: barnyardgrass (Echinochloa crus-galli); test: Test A postemergence; details: Echinochloa crus-galli, post-emergence, 240 h, 1000 g ai/ha, 0 to 100 scale, 0 no effect, 100 complete control, read-out: Plant response rating, Barnyardgrass
Outline: as §2

[6] = test system: wheat (Triticum aestivum); test: Test A postemergence; details: Triticum aestivum, post-emergence, 240 h, 1000 g ai/ha, 0 to 100 scale, read-out: Plant response rating, Wheat
Outline: as §2

[7] = test system: pigweed (Amaranthus retroflexus); test: Test A postemergence; details: Amaranthus retroflexus, post-emergence, 240 h, 1000 g ai/ha, 0 to 100 scale, read-out: Plant response rating, Pigweed
Outline: as §2

[8] = test system: galium (catchweed bedstraw, Galium aparine); test: Test A postemergence; details: Galium, post-emergence, 240 h, 1000 g ai/ha, 0 to 100 scale, read-out: Plant response rating, Galium
Outline: as §2

kochia (Kochia scoparia) [9] = test: Test A postemergence; details: Bassia scoparia, post-emergence, 240 h, 1000 g ai/ha, 0 to 100 scale, read-out: Plant response rating, Kochia
Outline: as §2

[10] = test system: ragweed (common ragweed, Ambrosia elatior); test: Test A postemergence; details: Ambrosia artemisiifolia, post-emergence, 240 h, 1000 g ai/ha, 0 to 100 scale, read-out: Plant response rating, Ragweed
Outline: as §2

[11] = test system: blackgrass (Alopecurus myosuroides); test: Test A postemergence; details: Alopecurus myosuroides, post-emergence, 240 h, 1000 g ai/ha, 0 to 100 scale, read-out: Plant response rating, Blackgrass
Outline: as §2

corn (Zea mays) = test: Test A postemergence; details: Zea mays, post-emergence, 240 h, 1000 g ai/ha, 0 to 100 scale
Outline: as §2

[12] = test system: barnyardgrass (Echinochloa crus-galli); test: Test B flooded paddy; details: Echinochloa crus-galli, 336 h; 250 g ai/ha, Flood, 13 to 15 days, scale 0 (no effect) to 100 (complete control); read-out: Plant response rating, Barnyardgrass
Outline: (§3)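 Greenhouse pots flooded to 3 cm above soil at time of treatment received compound via the water, which stayed at that level.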

[13] = test system: ducksalad (Heteranthera limosa); test: Test B flooded paddy; details: Heteranthera limosa, 336 h; 250 g ai/ha, Flood, 13 to 15 days, scale 0 (no effect) to 100 (complete control); read-out: Plant response rating, Ducksalad
Outline: as §3

[14] = test system: sedge, umbrella (small-flower umbrella sedge, Cyperus difformis); test: Test B flooded paddy; details: Cyperus difformis, 336 h; 250 g ai/ha, Flood, 13 to 15 days, scale 0 (no effect) to 100 (complete control); read-out: Plant response rating, Sedge, Umbrella
Outline: as §3

rice (Oryza sativa) = test: Test B flooded paddy; details: Oryza sativa, 336 h; 250 g ai/ha, Flood, 13 to 15 days, scale 0 (no effect) to 100 (complete control); read-out: Plant response rating, Rice
Outline: as §3

[15] = test system: Italian ryegrass (Lolium multiflorum); test: Test A preemergence; details: Lolium multiflorum, pre-emergence, 240 h, 1000 g ai/ha, 0 to 100 scale, read-out: Plant response rating, Ryegrass, Italian
Outline: as §2

[16] = test system: giant foxtail (Setaria faberii); test: Test A preemergence; details: Setaria faberi, pre-emergence, 240 h, 1000 g ai/ha, 0 to 100 scale, read-out: Plant response rating, Foxtail, Giant
Outline: as §2

[17] = test system: barnyardgrass (Echinochloa crus-galli); test: Test A preemergence; details: Echinochloa crus-galli, pre-emergence, 240 h, 1000 g ai/ha, 0 to 100 scale, read-out: Plant response rating, Barnyardgrass
Outline: as §2

[18] = test system: pigweed (Amaranthus retroflexus); test: Test A preemergence; details: Amaranthus retroflexus, pre-emergence, 240 h, 1000 g ai/ha, 0 to 100 scale, read-out: Plant response rating, Pigweed
Outline: as §2

kochia (Kochia scoparia) [19] = test: Test A preemergence; details: Bassia scoparia, pre-emergence, 240 h, 1000 g ai/ha, 0 to 100 scale, read-out: Plant response rating, Kochia
Outline: as §2

[20] = test system: ragweed (common ragweed, Ambrosia elatior); test: Test A preemergence; details: Ambrosia artemisiifolia, pre-emergence, 240 h, 1000 g ai/ha, 0 to 100 scale, read-out: Plant response rating, Ragweed
Outline: as §2

SMILES: Clc1cnc(Oc2cccc(Cl)c2Oc2ncc(Br)cn2)nc1 [Compound 17, 5-bromo-2-[2-chloro-6-[(5-chloro-2-pyrimidinyl)oxy]phenoxy]pyrimidine]
- pest or weed control at 31 g/ha [1]: 20%
- pest or weed control at 62 g/ha [1]: 85%
- pest or weed control at 125 g/ha [1]: 100%
- pest or weed control at 250 g/ha [1]: 100%
- pest or weed control at 31 g/ha [2]: 85%
- pest or weed control at 62 g/ha [2]: 90%
- pest or weed control at 125 g/ha [2]: 95%
- pest or weed control at 1000 g/ha [3]: 100%
- pest or weed control at 1000 g/ha [4]: 100%
- pest or weed control at 1000 g/ha [5]: 100%
- plant injury at 1000 g/ha [6]: 100%
- pest or weed control at 1000 g/ha [7]: 100%
- pest or weed control at 1000 g/ha [8]: 100%
- pest or weed control at 1000 g/ha (kochia (Kochia scoparia) [9]): 100%
- pest or weed control at 1000 g/ha [10]: 90%
- pest or weed control at 1000 g/ha [11]: 100%
- Corn plant response rating (crop injury, 0 = no effect, 100 = complete kill) at 1000 g/ha (corn (Zea mays)): 100%
- pest or weed control at 250 g/ha [12]: 20%
- pest or weed control at 250 g/ha [13]: 100%
- pest or weed control at 250 g/ha [14]: 100%
- plant injury at 250 g/ha (rice (Oryza sativa)): 35%
- pest or weed control at 1000 g/ha [15]: 100%
- pest or weed control at 1000 g/ha [16]: 100%
- pest or weed control at 1000 g/ha [17]: 100%
- pest or weed control at 1000 g/ha [18]: 100%
- pest or weed control at 1000 g/ha (kochia (Kochia scoparia) [19]): 100%
- pest or weed control at 1000 g/ha [20]: 100%

SMILES: Fc1cnc(Oc2c(Cl)cccc2Oc2ncc(Cl)cn2)nc1 [Compound 18, 5-chloro-2-[5-chloro-6-[(5-fluoro-2-pyrimidinyl)oxy]phenoxy]pyrimidine]
- pest or weed control at 31 g/ha [1]: 75%
- pest or weed control at 62 g/ha [1]: 100%
- pest or weed control at 125 g/ha [1]: 100%
- pest or weed control at 250 g/ha [1]: 100%
- pest or weed control at 31 g/ha [2]: 85%
- pest or weed control at 62 g/ha [2]: 95%
- pest or weed control at 125 g/ha [2]: 95%
- pest or weed control at 1000 g/ha [3]: 100%
- pest or weed control at 1000 g/ha [4]: 100%
- pest or weed control at 1000 g/ha [5]: 80%
- plant injury at 1000 g/ha [6]: 50%
- pest or weed control at 1000 g/ha [7]: 100%
- pest or weed control at 1000 g/ha [8]: 100%
- pest or weed control at 1000 g/ha (kochia (Kochia scoparia) [9]): 100%
- pest or weed control at 1000 g/ha [10]: 20%
- pest or weed control at 1000 g/ha [11]: 100%
- Corn plant response rating (crop injury, 0 = no effect, 100 = complete kill) at 1000 g/ha (corn (Zea mays)): 50%
- pest or weed control at 250 g/ha [12]: 50%
- pest or weed control at 250 g/ha [13]: 100%
- pest or weed control at 250 g/ha [14]: 100%
- plant injury at 250 g/ha (rice (Oryza sativa)): 80%
- pest or weed control at 1000 g/ha [15]: 70%
- pest or weed control at 1000 g/ha [16]: 100%
- pest or weed control at 1000 g/ha [17]: 100%
- pest or weed control at 1000 g/ha [18]: 100%
- pest or weed control at 1000 g/ha (kochia (Kochia scoparia) [19]): 100%
- pest or weed control at 1000 g/ha [20]: 30%

SMILES: Fc1cnc(Oc2c(Br)cccc2Oc2ncc(Cl)cn2)nc1 [Compound 22]
- pest or weed control at 31 g/ha [1]: 60%
- pest or weed control at 62 g/ha [1]: 95%
- pest or weed control at 125 g/ha [1]: 100%
- pest or weed control at 250 g/ha [1]: 100%
- pest or weed control at 31 g/ha [2]: 75%
- pest or weed control at 62 g/ha [2]: 100%
- pest or weed control at 125 g/ha [2]: 100%
- pest or weed control at 1000 g/ha [3]: 90%
- pest or weed control at 1000 g/ha [4]: 90%
- pest or weed control at 1000 g/ha [5]: 90%
- plant injury at 1000 g/ha [6]: 70%
- pest or weed control at 1000 g/ha [7]: 100%
- pest or weed control at 1000 g/ha [8]: 90%
- pest or weed control at 1000 g/ha (kochia (Kochia scoparia) [9]): 100%
- pest or weed control at 1000 g/ha [10]: 90%
- pest or weed control at 1000 g/ha [11]: 70%
- Corn plant response rating (crop injury, 0 = no effect, 100 = complete kill) at 1000 g/ha (corn (Zea mays)): 70%
- pest or weed control at 250 g/ha [12]: 45%
- pest or weed control at 250 g/ha [13]: 100%
- pest or weed control at 250 g/ha [14]: 98%
- plant injury at 250 g/ha (rice (Oryza sativa)): 45%
- pest or weed control at 1000 g/ha [15]: 90%
- pest or weed control at 1000 g/ha [16]: 100%
- pest or weed control at 1000 g/ha [17]: 100%
- pest or weed control at 1000 g/ha [18]: 100%
- pest or weed control at 1000 g/ha (kochia (Kochia scoparia) [19]): 100%
- pest or weed control at 1000 g/ha [20]: 90%
